Source: the NIST ThermoML archive (doi:10.1007/s10765-008-0514-x)
Where “and” joins values, the source holds several entries; their conditions need not be identical. Identical values can stand only once. ± gives the expanded uncertainty stated by the source.

Assay: cn = amount concentration of the nth substance listed, in mol/dm3
Settings: 101 kPa, Liquid, c1 = 2

SMILES: [Cl-].[K+] [potassium chloride] + O
- mass density (298.15 K): 1089.1 ± 1.7 kg/m3
- speed of sound (298.15 K): 1595.2 ± 3.3 m/s
- mass density (303.15 K): 1087.5 ± 1.8 kg/m3
- speed of sound (303.15 K): 1605.9 ± 3.3 m/s
- mass density (308.15 K): 1085.6 ± 1.9 kg/m3
- speed of sound (308.15 K): 1610.2 ± 3.3 m/s
- mass density (313.15 K): 1083.4 ± 1.9 kg/m3
- speed of sound (313.15 K): 1616.4 ± 3.4 m/s
- mass density (318.15 K): 1080.9 ± 2 kg/m3
- speed of sound (318.15 K): 1621.4 ± 3.4 m/s
- mass density (323.15 K): 1078.3 ± 2.1 kg/m3
- speed of sound (323.15 K): 1626.5 ± 3.4 m/s

SMILES: O=[N+]([O-])[O-].[K+] [potassium nitrate] + O
- mass density (298.15 K): 1122.9 ± 1.8 kg/m3
- speed of sound (298.15 K): 1562 ± 3.3 m/s
- mass density (303.15 K): 1120.6 ± 1.9 kg/m3
- speed of sound (303.15 K): 1569.4 ± 3.3 m/s
- mass density (308.15 K): 1118 ± 1.9 kg/m3
- speed of sound (308.15 K): 1575.8 ± 3.3 m/s and 1575 ± 3.3 m/s
- mass density (313.15 K): 1115 ± 2 kg/m3
- speed of sound (313.15 K): 1580 ± 3.3 m/s
- mass density (318.15 K): 1111.8 ± 2.1 kg/m3
- speed of sound (318.15 K): 1584.6 ± 3.3 m/s and 1584.5 ± 3.3 m/s
- mass density (323.15 K): 1108.2 ± 2.1 kg/m3
- speed of sound (323.15 K): 1588.9 ± 3.3 m/s and 1588.8 ± 3.3 m/s
